The NIST ThermoML archive (doi:10.1016/j.jct.2019.06.032)
± gives the expanded uncertainty stated by the source.

Key:
[1] = 101 kPa, Liquid; for viscosity: Capillary tube (Ostwald / Ubbelohde) method; for mass density: Vibrating tube method
[2] = xn = mol fraction of the nth substance listed; conditions: 101 kPa, Liquid; for viscosity: Capillary tube (Ostwald / Ubbelohde) method; for mass density: Vibrating tube method

NCCO [2-aminoethan-1-ol]
[1]
Conditions | mass density [kg/m3] | viscosity [mPa·s]
293.15 K | 1016.9 ± 10 | 23.79 ± 4.8
303.15 K | 1009.5 ± 10 | 14.83 ± 3
313.15 K | 1001.1 ± 10 | 9.89 ± 2
323.15 K | 992.7 ± 10 | 6.872 ± 1.4
333.15 K | 984.3 ± 10 | 4.99 ± 1

NCCO [2-aminoethan-1-ol] + CCN(CC)CCO
[2], x1 = 1
Conditions | mass density [kg/m3] | viscosity [mPa·s]
293.15 K | 1016.9 ± 10 | 23.79 ± 4.8
303.15 K | 1009.5 ± 10 | 14.83 ± 3
313.15 K | 1001.1 ± 10 | 9.89 ± 2
323.15 K | 992.7 ± 10 | 6.872 ± 1.4
333.15 K | 984.3 ± 10 | 4.99 ± 1

CCN(CC)CCO [(diethylamino)ethanol]
[1]
Conditions | mass density [kg/m3] | viscosity [mPa·s]
293.15 K | 891.2 ± 10 | 4.848 ± 0.97
303.15 K | 874.4 ± 10 | 3.41 ± 0.68
313.15 K | 865.4 ± 10 | 2.466 ± 0.49
323.15 K | 856.4 ± 10 | 1.855 ± 0.37
333.15 K | 845.6 ± 10 | 1.431 ± 0.29

O [water] + CCN(CC)CCO
[2], x2 = 0
Conditions | mass density [kg/m3] | viscosity [mPa·s]
293.15 K | – | 1.004 ± 0.2
303.15 K | – | 0.813 ± 0.16
313.15 K | 992.3 ± 10 | 0.662 ± 0.13
323.15 K | – | 0.57 ± 0.11
333.15 K | 983.3 ± 10 | 0.483 ± 0.097

O [water] + NCCO
[2], x2 = 0
Conditions | mass density [kg/m3] | viscosity [mPa·s]
293.15 K | – | 1.004 ± 0.2
303.15 K | – | 0.813 ± 0.16
313.15 K | 992.3 ± 10 | 0.662 ± 0.13
323.15 K | – | 0.57 ± 0.11
333.15 K | 983.3 ± 10 | 0.483 ± 0.097
